Laboratory results from ChEMBL document CHEMBL2016453, “Design, synthesis and anticonvulsant activities of novel 1-(substituted/unsubstituted benzylidene)-4-(4-(6,8-dibromo-2-(methyl/phenyl)-4-oxoquinazolin-3(4H)-yl)phenyl) semicarbazide derivatives” (Bioorg Med Chem Lett, 2012).
Calls of active or inactive are those of the source. The calls are words filed in the database; no cut-off is given here.

Legend:
[1] = test system: Mus musculus; assay: Anticonvulsant activity in Swiss albino mouse assessed as protection against subcutaneous pentylenetetrazole-induced seizures at 300 mg/kg, ip after 4 hrs; format: functional, organism-based; parameters: dose 300 mg/kg
[2] = test system: Mus musculus; assay: Anticonvulsant activity in Swiss albino mouse assessed as protection against subcutaneous pentylenetetrazole-induced seizures at 300 mg/kg, ip after 0.5 hrs; format: functional, organism-based; parameters: dose 300 mg/kg
[3] = test system: Mus musculus; assay: Anticonvulsant activity in Swiss albino mouse assessed as protection against maximal electroshock-induced seizures at 300 mg/kg, ip after 4 hrs; format: functional, organism-based; parameters: dose 300 mg/kg
[4] = test system: Mus musculus; assay: Anticonvulsant activity in Swiss albino mouse assessed as protection against maximal electroshock-induced seizures at 300 mg/kg, ip after 0.5 hrs; format: functional, organism-based; parameters: dose 300 mg/kg
[5] = test system: Rattus norvegicus; assay: Anticonvulsant activity in Wistar rat maximal electroshock-induced seizures model assessed as time spend in hind leg tonic extensor phase at 30 mg/kg, po after 0.5 hrs relative to control; format: functional
[6] = test system: Rattus norvegicus; assay: Anticonvulsant activity in Wistar rat assessed as protection against maximal electroshock-induced seizures at 30 mg/kg, po after 0.25 hrs; format: functional
[7] = test system: Rattus norvegicus; assay: Anticonvulsant activity in Wistar rat assessed as protection against maximal electroshock-induced seizures at 30 mg/kg, po after 4 hrs; format: functional
[8] = test system: Rattus norvegicus; assay: Anticonvulsant activity in Wistar rat maximal electroshock-induced seizures model assessed as time spend in hind leg tonic extensor phase at 30 mg/kg, po after 2 hrs relative to control; format: functional
[9] = test system: Rattus norvegicus; assay: Anticonvulsant activity in Wistar rat assessed as protection against maximal electroshock-induced seizures at 30 mg/kg, po after 1 hr; format: functional
[10] = test system: Rattus norvegicus; assay: Anticonvulsant activity in Wistar rat assessed as protection against maximal electroshock-induced seizures at 30 mg/kg, po after 0.5 hrs; format: functional
[11] = test system: Mus musculus; assay: Anticonvulsant activity in ip dosed Swiss albino mouse assessed as protection against maximal electroshock-induced seizures after 4 hrs; format: functional; settings: read-out: MED
[12] = test system: Rattus norvegicus; assay: Neurotoxicity in Wistar rat assessed as motor impairment at 30 mg/kg, po by rotorod test; format: toxicity, organism-based; parameters: dose 30 mg/kg, route oral; settings: in vivo
[13] = test system: Rattus norvegicus; assay: Anticonvulsant activity in Wistar rat maximal electroshock-induced seizures model assessed as time spend in hind leg tonic extensor phase at 30 mg/kg, po after 4 hrs relative to control; format: functional
[14] = test system: Rattus norvegicus; assay: Anticonvulsant activity in Wistar rat maximal electroshock-induced seizures model assessed as time spend in hind leg tonic extensor phase at 30 mg/kg, po after 1 hr relative to control; format: functional
[15] = test system: Rattus norvegicus; assay: Anticonvulsant activity in Wistar rat assessed as protection against maximal electroshock-induced seizures at 30 mg/kg, po after 2 hrs; format: functional
[16] = test system: Rattus norvegicus; assay: Anticonvulsant activity in Wistar rat maximal electroshock-induced seizures model assessed as time spend in hind leg tonic extensor phase at 30 mg/kg, po after 0.25 hrs relative to control; format: functional
[17] = test system: Mus musculus; assay: Anticonvulsant activity in ip dosed Swiss albino mouse assessed as protection against maximal electroshock-induced seizures after 0.5 hrs; format: functional; settings: read-out: MED
[18] = test system: Mus musculus; assay: Neurotoxicity in Swiss albino mouse assessed as motor impairment at 300 mg/kg, ip after 0.5 hrs by rotorod test; format: toxicity, organism-based; parameters: dose 300 mg/kg, route intraperitoneal; settings: in vivo
[19] = test system: Mus musculus; assay: Neurotoxicity in Swiss albino mouse assessed as motor impairment at 300 mg/kg, ip after 4 hrs by rotorod test; format: toxicity, organism-based; parameters: dose 300 mg/kg, route intraperitoneal; settings: in vivo
[20] = test system: Mus musculus; assay: Anticonvulsant activity in ip dosed Swiss albino mouse assessed as protection against subcutaneous pentylenetetrazole-induced seizures after 0.5 hrs; format: functional; settings: read-out: MED
[21] = test system: Mus musculus; assay: Anticonvulsant activity in ip dosed Swiss albino mouse assessed as protection against subcutaneous pentylenetetrazole-induced seizures after 4 hrs; format: functional; settings: read-out: MED
[22] = Neurotoxicity in ip dosed Swiss albino mouse assessed as maximum tolerated dose after 0.5 hrs by rotorod test; format: toxicity, organism-based; settings: in vivo
[23] = Neurotoxicity in ip dosed Swiss albino mouse assessed as maximum tolerated dose after 4 hrs by rotorod test; format: toxicity, organism-based; settings: in vivo

| Compound | Activity [1] | Activity [2] | Activity [3] | Time [5] [s] | Activity [6] [%] | Activity [7] [%] | Time [8] [s] | Activity [9] [%] | Activity [10] [%] | minimal effective dose [11] [mg/kg] | Activity [12] | Time [13] [s] | Time [14] [s] | Activity [15] [%] | Time [16] [s] | minimal effective dose [17] [mg/kg] | Activity [18] | Activity [19] | minimal effective dose [20] [mg/kg] | minimal effective dose [21] [mg/kg] | also measured |
| --- | --- | --- | --- | --- | --- | --- | --- | --- | --- | --- | --- | --- | --- | --- | --- | --- | --- | --- | --- | --- | --- |
| O=C(N/N=C/c1ccc(Cl)cc1)Nc1ccc(-n2c(-c3ccccc3)nc3c(Br)cc(Br)cc3c2=O)cc1 | inactive | inactive | inactive |  |  |  |  |  |  |  |  |  |  |  |  |  |  |  |  |  | Activity [4]: inactive |
| O=C1NC(=O)C(c2ccccc2)(c2ccccc2)N1 [PHENYTOIN] | inactive | inactive |  | 0 | 25 | 75 | 1.88 | 75 | 100 | 30 | Non-toxic | 1.38 | 2.63 | 75 | 7.13 | 30 |  |  |  |  |  |
| Cc1nc2c(Br)cc(Br)cc2c(=O)n1-c1ccc(NC(=O)N/N=C/c2ccc(O)cc2)cc1 |  |  |  | 2.38 | 25 | 100 | 0 | 88 | 75 | 30 | Non-toxic | 0 | 1.25 | 100 | 6.63 | 30 | Non-toxic | Non-toxic | 100 | 300 |  |
| O=C(N/N=C/c1ccccc1)Nc1ccc(-n2c(-c3ccccc3)nc3c(Br)cc(Br)cc3c2=O)cc1 |  |  |  |  |  |  |  |  |  | 300 |  |  |  |  |  | 100 |  |  | 300 | 300 | MTD at 0.5 h [22]: 100 mg/kg; MTD at 4 h [23]: 300 mg/kg |
| COc1cc(/C=N/NC(=O)Nc2ccc(-n3c(C)nc4c(Br)cc(Br)cc4c3=O)cc2)ccc1O |  |  |  | 5.88 | 0 | 0 | 12.38 | 25 | 50 | 100 | Non-toxic | 12.25 | 9.5 | 0 | 12.88 | 30 | Non-toxic | Non-toxic | 100 | 300 |  |
| COc1cc(/C=N/NC(=O)Nc2ccc(-n3c(-c4ccccc4)nc4c(Br)cc(Br)cc4c3=O)cc2)ccc1O | inactive |  |  |  |  |  |  |  |  | 300 |  |  |  |  |  | 100 |  |  | 300 |  | MTD at 0.5 h [22]: 100 mg/kg; MTD at 4 h [23]: 300 mg/kg |
| Cc1nc2c(Br)cc(Br)cc2c(=O)n1-c1ccc(NC(=O)N/N=C/c2ccccc2)cc1 | inactive |  |  |  |  |  |  |  |  | 300 |  |  |  |  |  | 100 | Non-toxic | Non-toxic | 300 |  |  |
| Cc1nc2c(Br)cc(Br)cc2c(=O)n1-c1ccc(NC(=O)N/N=C/c2cccc([N+](=O)[O-])c2)cc1 | inactive |  |  |  |  |  |  |  |  | 300 |  |  |  |  |  | 100 |  | Non-toxic | 300 |  | MTD at 0.5 h [22]: 300 mg/kg |
| CCC1(C)CC(=O)NC1=O (configuration not stated) [ETHOSUXIMIDE] |  |  | inactive |  |  |  |  |  |  |  |  |  |  |  |  |  | Non-toxic | Non-toxic | 100 | 300 | Activity [4]: inactive |
| Cc1nc2c(Br)cc(Br)cc2c(=O)n1-c1ccc(NC(=O)N/N=C/c2ccc([N+](=O)[O-])cc2)cc1 |  | inactive | inactive |  |  |  |  |  |  |  |  |  |  |  |  | 100 | Non-toxic |  |  | 300 | MTD at 4 h [23]: 300 mg/kg |
| Cc1nc2c(Br)cc(Br)cc2c(=O)n1-c1ccc(NC(=O)N/N=C/c2ccc(N(C)C)cc2)cc1 |  |  |  | 2.88 | 25 | 100 | 0 | 88 | 75 | 30 | Non-toxic | 0 | 1.38 | 100 | 8.38 | 30 |  |  | 100 | 300 | MTD at 0.5 h [22]: 300 mg/kg; MTD at 4 h [23]: 300 mg/kg |
| O=C(N/N=C/c1cccc([N+](=O)[O-])c1)Nc1ccc(-n2c(-c3ccccc3)nc3c(Br)cc(Br)cc3c2=O)cc1 |  | inactive | inactive |  |  |  |  |  |  |  |  |  |  |  |  |  |  |  |  | 300 | Activity [4]: inactive |
| Cc1nc2c(Br)cc(Br)cc2c(=O)n1-c1ccc(NC(=O)N/N=C/c2ccc(Cl)cc2)cc1 | inactive | inactive | inactive |  |  |  |  |  |  |  |  |  |  |  |  | 300 |  |  |  |  |  |
| O=C(N/N=C/c1ccc(O)cc1)Nc1ccc(-n2c(-c3ccccc3)nc3c(Br)cc(Br)cc3c2=O)cc1 |  |  |  | 12.38 | 0 | 50 | 9 | 0 | 0 | 300 | Non-toxic | 6.5 | 12 | 25 | 12.5 | 30 | Non-toxic |  | 300 | 300 | MTD at 4 h [23]: 300 mg/kg |
| O=C(N/N=C/c1ccc([N+](=O)[O-])cc1)Nc1ccc(-n2c(-c3ccccc3)nc3c(Br)cc(Br)cc3c2=O)cc1 | inactive |  | inactive |  |  |  |  |  |  |  |  |  |  |  |  |  |  |  | 300 |  | Activity [4]: inactive |
| CN(C)c1ccc(/C=N/NC(=O)Nc2ccc(-n3c(-c4ccccc4)nc4c(Br)cc(Br)cc4c3=O)cc2)cc1 |  |  |  | 10.75 | 0 | 0 | 11.63 | 38 | 13 | 300 | Non-toxic | 11.88 | 7.5 | 0 | 12.75 | 100 | Non-toxic | Non-toxic | 100 | 300 |  |
